Results published in ChEMBL document CHEMBL1201862, “PubChem BioAssay data set” (2004).
Values joined by “and” are separate entries in the source; they are usually repeats but may differ in a detail not shown here. Identical values can stand only once.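 Compound exposure: 48 hours, 5 concentrations, 96-well plates. At the GI50, growth is halved.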 Active and inactive are the calls of the source. No stated cut-off is given here; in the data, active = GI50 up to about 1.1 µM and inactive = higher.

Key:
Experiment in all cases: inhibition of tumour cell growth, NCI panel, 48 h
[1] = system: NCI-H226
[2] = system: UACC-62
[3] = system: TK-10
[4] = system: RXF 393
[5] = system: T47D
[6] = system: SF-268
[7] = system: HT-29
[8] = system: PC-3
[9] = system: OVCAR-4
[10] = system: SN12C
[11] = system: LOX IMVI
[12] = system: SR
[13] = system: Hs-578T
[14] = system: NCI-H522
[15] = system: MDA-MB-231
[16] = system: UACC-257
[17] = system: SNB-19
[18] = system: MDA-N
[19] = system: Malme-3M
[20] = system: U-251
[21] = system: HCC 2998
[22] = system: SK-MEL-2
[23] = system: K562
[24] = system: HOP-92
[25] = system: OVCAR-5
[26] = system: NCI-H460
[27] = system: UO-31
[28] = system: RPMI-8226
[29] = system: SNB-75
[30] = system: HOP-62
[31] = system: CAKI-1
[32] = system: HL-60
[33] = system: BT-549
[34] = system: NCI/ADR-RES
[35] = system: DU-145
[36] = system: MOLT-4
[37] = system: A498
[38] = system: OVCAR-8
[39] = system: SF-539
[40] = system: M14
[41] = system: OVCAR-3
[42] = system: EKVX
[43] = system: COLO 205
[44] = system: HCT-15
[45] = system: ACHN
[46] = system: HCT-116
[47] = system: SW-620
[48] = system: KM12
[49] = system: SK-MEL-28
[50] = system: 786-0
[51] = system: MCF7
[52] = system: NCI-H23
[53] = system: MDA-MB-435
[54] = system: CCRF-CEM
[55] = system: A549
[56] = system: SK-OV-3
[57] = system: SK-MEL-5
[58] = system: IGROV-1
[59] = system: SF-295
[60] = system: DMS-114
[61] = system: DLD-1
[62] = system: M19-MEL
[63] = system: SNB-78
[64] = system: XF498
[65] = system: KM-20L2
[66] = system: LXFL 529
[67] = system: DMS-273

SMILES: CC(=O)NC1C(OCc2ccccc2)OC(CO)C(O)C1OC(C)C(=O)N[C@@H](C)C(=O)N[C@H](CCC(=O)NCCNCCNc1c2ccccc2nc2cccc([N+](=O)[O-])c12)C(N)=O (stereo partly specified)
- GI50 [1]: 0.149 µM (active)
- GI50 [2]: 0.0659 µM (active)
- GI50 [3]: 0.135 µM (active)
- GI50 [4]: 0.0169 µM (active)
- GI50 [5]: 0.0461 µM (active)
- GI50 [6]: 0.164 µM (active)
- GI50 [7]: 0.0369 µM (active)
- GI50 [8]: 0.0321 µM (active)
- GI50 [9]: 0.0228 µM (active)
- GI50 [10]: 0.104 µM (active)
- GI50 [11]: 0.136 µM (active)
- GI50 [12]: 0.0794 µM (active)
- GI50 [13]: 0.356 µM (active)
- GI50 [14]: < 0.01 µM (active)
- GI50 [15]: 0.177 µM (active)
- GI50 [16]: 0.108 µM (active)
- GI50 [17]: 0.29 µM (active)
- GI50 [18]: 0.0708 µM (active)
- GI50 [19]: 0.043 µM (active)
- GI50 [20]: 0.0944 µM (active)
- GI50 [21]: 0.0152 µM (active)
- GI50 [22]: 0.048 µM (active)
- GI50 [23]: 31.1 nM (active)
- GI50 [24]: 0.0244 µM (active)
- GI50 [25]: 0.336 µM (active)
- GI50 [26]: < 0.01 µM (active)
- GI50 [27]: 0.24 µM (active)
- GI50 [28]: 0.0698 µM (active)
- GI50 [29]: 0.205 µM (active)
- GI50 [30]: 0.192 µM (active)
- GI50 [31]: 0.0634 µM (active)
- GI50 [32]: 0.308 µM (active)
- GI50 [33]: 0.0698 µM (active)
- GI50 [34]: 1.73 µM (inactive)
- GI50 [35]: 0.0241 µM (active)
- GI50 [36]: 0.0935 µM (active)
- GI50 [37]: 0.137 µM (active)
- GI50 [38]: 0.11 µM (active)
- GI50 [39]: 0.0982 µM (active)
- GI50 [40]: 0.0993 µM (active)
- GI50 [41]: 0.226 µM (active)
- GI50 [42]: 0.199 µM (active)
- GI50 [43]: < 0.0112 µM (active)
- GI50 [44]: 0.153 µM
- GI50 [45]: 0.0557 µM (active)
- GI50 [46]: 0.0214 µM (active)
- GI50 [47]: 0.0266 µM (active)
- GI50 [48]: 0.0783 µM (active)
- GI50 [49]: 0.245 µM (active)
- GI50 [50]: 0.0601 µM (active)
- GI50 [51]: < 0.0195 µM (active)
- GI50 [52]: 0.022 µM (active)
- GI50 [53]: 0.0389 µM (active)
- GI50 [54]: 0.201 µM (active)
- GI50 [55]: 0.0244 µM (active)
- GI50 [56]: 0.348 µM (active)
- GI50 [57]: 0.0159 µM (active)
- GI50 [58]: 0.0385 µM (active)
- GI50 [59]: 207 nM (active)

SMILES: O=C(Nc1ccc(Cl)cc1Cl)/C(Cl)=C1/Sc2ccccc2NC1=O
- GI50 [1]: 25.2 µM (inactive)
- GI50 [60]: 20.1 µM (inactive)
- GI50 [2]: 25.6 µM (inactive)
- GI50 [3]: 73.5 µM (inactive)
- GI50 [4]: 27.9 µM (inactive)
- GI50 [61]: 35.4 µM (inactive)
- GI50 [6]: 26.7 µM (inactive)
- GI50 [9]: 24.7 µM (inactive)
- GI50 [10]: 28.4 µM (inactive)
- GI50 [11]: 40.6 µM (inactive)
- GI50 [14]: 18.8 µM (inactive)
- GI50 [17]: 34.5 µM (inactive)
- GI50 [19]: 20 µM (inactive)
- GI50 [20]: 32.3 µM (inactive)
- GI50 [21]: 32 µM (inactive)
- GI50 [22]: 15.2 µM (inactive)
- GI50 [23]: 29600 nM (inactive)
- GI50 [24]: 16.8 µM (inactive)
- GI50 [25]: 52.6 µM (inactive)
- GI50 [26]: 38.6 µM (inactive)
- GI50 [27]: 30 µM (inactive)
- GI50 [28]: 24 µM (inactive)
- GI50 [29]: 18 µM (inactive)
- GI50 [62]: 37.8 µM (inactive)
- GI50 [30]: 39.7 µM (inactive)
- GI50 [31]: 41.2 µM (inactive)
- GI50 [32]: 21.9 µM (inactive)
- GI50 [36]: 25.6 µM (inactive)
- GI50 [37]: 66.4 µM (inactive)
- GI50 [38]: 50.5 µM (inactive)
- GI50 [63]: 44.9 µM (inactive)
- GI50 [39]: 30.2 µM (inactive)
- GI50 [40]: 29.2 µM (inactive)
- GI50 [42]: 58.1 µM (inactive)
- GI50 [43]: 26.6 µM (inactive)
- GI50 [44]: 25.9 µM
- GI50 [45]: 38 µM (inactive)
- GI50 [46]: 23 µM (inactive)
- GI50 [47]: 33.7 µM (inactive)
- GI50 [49]: 23.6 µM (inactive)
- GI50 [50]: 45.3 µM (inactive)
- GI50 [52]: 19.6 µM (inactive)
- GI50 [54]: 22.8 µM (inactive)
- GI50 [64]: 1.32 µM (inactive)
- GI50 [55]: 39.3 µM (inactive)
- GI50 [56]: 20.8 µM (inactive)
- GI50 [65]: 61.9 µM (inactive)
- GI50 [66]: 22.2 µM (inactive)
- GI50 [57]: 19.3 µM (inactive)
- GI50 [58]: 28.6 µM (inactive)

SMILES: C=CN1C(=O)OC(c2ccccc2)C1c1ccccc1 (stereo unspecified)
- GI50 [67]: 57.4 µM (inactive) and > 31.6 µM (inactive)
- GI50 [11]: 49.1 µM (inactive) and > 78.5 µM (inactive)
- GI50 [12]: > 100 µM (inactive)
- GI50 [20]: 54.7 µM (inactive) and > 31.6 µM (inactive)
- GI50 [23]: > 31.6 µM (inactive) and 40.5 µM (inactive)
- GI50 [25]: > 100 µM (inactive)
- GI50 [32]: > 31.6 µM (inactive) and 45.2 µM (inactive)
- GI50 [39]: 61.1 µM (inactive) and > 31.6 µM (inactive)
- GI50 [47]: 40.7 µM (inactive) and > 31.6 µM (inactive)
- GI50 [64]: > 10 µM (inactive)
- GI50 [59]: > 100 µM (inactive) and > 99.3 µM (inactive)

SMILES: CCC(=S)N(C)O
- GI50 [1]: 54.7 µM (inactive)
- GI50 [60]: 2.22 µM (inactive)
- GI50 [2]: 20 µM (inactive)
- GI50 [3]: 60.1 µM (inactive)
- GI50 [4]: 25.9 µM (inactive)
- GI50 [5]: 46.1 µM (inactive)
- GI50 [61]: 24.6 µM (inactive)
- GI50 [6]: 47.4 µM (inactive)
- GI50 [7]: 0.839 µM (active)
- GI50 [8]: 8.69 µM (inactive)
- GI50 [9]: 9.53 µM (inactive)
- GI50 [10]: 22 µM (inactive)
- GI50 [11]: 10.6 µM (inactive)
- GI50 [12]: 1.02 µM (active)
- GI50 [13]: > 100 µM (inactive)
- GI50 [14]: 0.41 µM (active)
- GI50 [15]: 42.4 µM (inactive)
- GI50 [16]: 50.9 µM (inactive)
- GI50 [17]: 63.5 µM (inactive)
- GI50 [18]: 35.9 µM (inactive)
- GI50 [19]: 53.5 µM (inactive)
- GI50 [20]: 23.4 µM (inactive)
- GI50 [21]: 55.6 µM (inactive)
- GI50 [22]: 29.4 µM (inactive)
- GI50 [23]: 520 nM (active)
- GI50 [24]: > 85.9 µM (inactive)
- GI50 [25]: 45.1 µM (inactive)
- GI50 [26]: 10.1 µM (inactive)
- GI50 [27]: 26.8 µM (inactive)
- GI50 [28]: 0.828 µM (active)
- GI50 [29]: 41 µM (inactive)
- GI50 [62]: 9.77 µM (inactive)
- GI50 [30]: 43.5 µM (inactive)
- GI50 [31]: 81.8 µM (inactive)
- GI50 [32]: 1.48 µM (inactive)
- GI50 [33]: > 100 µM (inactive)
- GI50 [34]: 17.1 µM (inactive)
- GI50 [35]: 27.6 µM (inactive)
- GI50 [36]: 1.88 µM (inactive)
- GI50 [37]: 65.9 µM (inactive)
- GI50 [38]: 40.3 µM (inactive)
- GI50 [63]: 55.6 µM (inactive)
- GI50 [39]: 39.3 µM (inactive)
- GI50 [40]: 17.8 µM (inactive)
- GI50 [41]: 3.08 µM (inactive)
- GI50 [42]: 16.5 µM (inactive)
- GI50 [43]: 0.634 µM (active)
- GI50 [44]: 17 µM
- GI50 [45]: 35.2 µM (inactive)
- GI50 [46]: 2.39 µM (inactive)
- GI50 [47]: 4.09 µM (inactive)
- GI50 [48]: 25 µM (inactive)
- GI50 [49]: 57.4 µM (inactive)
- GI50 [50]: 11.6 µM (inactive)
- GI50 [51]: 3.71 µM (inactive)
- GI50 [52]: 10.1 µM (inactive)
- GI50 [53]: 15.6 µM (inactive)
- GI50 [54]: 0.459 µM (active)
- GI50 [64]: 1.01 µM (active)
- GI50 [55]: 20.3 µM (inactive)
- GI50 [56]: 76.9 µM (inactive)
- GI50 [65]: 21.7 µM (inactive)
- GI50 [66]: 0.499 µM (active)
- GI50 [57]: 8.55 µM (inactive)
- GI50 [58]: 6.93 µM (inactive)
- GI50 [59]: 34200 nM (inactive)
